Among the data in the SangsterLogP compilation are logP and logD values, retold here.

Test in the first series: not given
Conditions: not given
With `COc1ccc(CCNCC(O)COc2cccc(C)c2)cc1OC` (stereo unspecified), the logP (as a rule, a log measure of how a compound divides between an organic and an aqueous phase) was determined as 3.

In turn, `Cc1ccccc1OCC(O)CNCC(O)COc1ccccc1C` (stereo unspecified) registered a logP of 3.67. Regarding `O=[N+]([O-])c1ccc(OCC(O)CNCC(O)COc2ccccc2)cc1` (stereo unspecified), the logP stood at 2.62.

Another series in a line: method code SF-AS, from PMID: 872227. Particulars: pH 7.2.
As to `CCCCOc1ccc(NC(=O)OCCN2CCOCC2)c(C)c1`, the logD – broadly, the decadic logarithm of the distribution of all forms, ionised or not, between an organic phase and buffer at a given pH – is 2.82. `CCCCCCOc1ccc(NC(=O)OCCN2CCOCC2)c(C)c1` displayed a logD of 3.9. Turning to `CCCCCOc1ccc(NC(=O)OCCN2CCOCC2)c(C)c1`, the logD stood at 3.38.

Test in the next series: not given
Conditions: not given
This is another data set of the same source.
Take `CCN(CC)CCC(=O)NC1c2ccccc2Sc2c(C)cccc21` (stereo unspecified): the logP is 4.1.

On to `CCN(CC)CCC(=O)NC1c2ccccc2Oc2c(C)cccc21` (stereo unspecified), for which the logP was 3.55.

`Cc1cccc2c1Sc1ccccc1C2NC(=O)CCN(C)C` (stereo unspecified): the logP stood at 3.06.

Test in another series: not given
Conditions: not given
This is another data set of the same source.
`CC=CC(=O)OC(CNC(C)C)COc1cccc2ccccc12` (stereo unspecified) registered a logP of 3.78.

Turning to `CC(=O)OC(CNC(C)C)COc1cccc2ccccc12` (stereo unspecified), the logP is 4.34. In turn, `CC(C)NCC(COc1cccc2ccccc12)OC(=O)c1ccc([N+](=O)[O-])cc1` (stereo unspecified) registered a logP of 5.97.

Test in a further series: not given
Conditions: not given
The source holds these as a separate data set.
Consider `CC(=O)N(CCO)c1c(I)c(C(=O)NC(CO)CO)c(I)c(C(=O)NC(CO)CO)c1I`, for which the logP is -2.49.

In the case of `CC(=O)N(C[C@@H](O)CO)c1c(I)c(C(=O)NC(CO)CO)c(I)c(N(C(C)=O)[C@@H](O)CO)c1I`, the logP was -2.64. Molecule `CC(=O)N(CC(O)CO)c1c(I)c(C(=O)NCC(O)CO)c(I)c(C(=O)NCC(O)CO)c1I` (stereo unspecified) returned a logP of -3.08.

Test in the next series: not given
Conditions: not given
The source holds these as a separate data set.
`CCCC(=O)Oc1cc(C=C(C#N)C(=O)N(CC)CC)cc([N+](=O)[O-])c1OC(=O)CCC` registered a logP of 3.15. Same read-out and setting: next, `CCN(CC)C(=O)C(C#N)=Cc1cc(OC(=O)c2ccccc2)c(OC(=O)c2ccccc2)c([N+](=O)[O-])c1`: 3.44; `CCN(CC)C(=O)C(C#N)=Cc1cc(OC(C)=O)c(OC(C)=O)c([N+](=O)[O-])c1`: 1.23.

Test in a further series: not given
Conditions: not given
This is another data set of the same source.
For the molecule `C(=Cc1cccnc1)c1ccc(C=Cc2cccnc2)cc1`, the logP is 3.73. As for `COc1cc(C=Cc2cccnc2)ccc1C=Cc1cccnc1`, the logP was 4.32. On to `C(=C\c1ccc(/C=C/c2ccncc2)cc1)/c1ccncc1`, for which the logP is 3.93.

The nature of another series: method code SF-AS, from DOI: 10.3109/03639048709068705.
Conditions: not given
Molecule `CC(C)NCC(COc1cccc2ccccc12)OC(=O)C(C)(C)C` (stereo unspecified) gave a logP of 6.44. `CCCCCC(=O)OC(CNC(C)C)COc1cccc2ccccc12` (stereo unspecified) came in with a logP of 6.85. Turning to `CCC(=O)OC(CNC(C)C)COc1cccc2ccccc12` (stereo unspecified), the logP was 4.99.

Another series can be described thus: method code SF-AS, from DOI: 10.1002/ardp.19853180604, PMID: 4026543. Particulars: pH 7.4.
In the case of `Cc1nc2ccccc2c(=O)n1N=C1SCC(=O)N1c1ccc(Br)cc1`, the logD is -1.26.

`Cc1nc2ccccc2c(=O)n1N=C1SCC(=O)N1c1ccccc1` came in with a logD of -1.06. In turn, `Cc1nc2ccccc2c(=O)n1N=C1SCC(=O)N1c1ccc(Cl)cc1` returned a logD of -1.6.

A short description of another series: method code SF-HPLC, from DOI: 10.1016/j.ejps.2012.04.024, PMID: 22609526.
Conditions: not given
Turning to `COc1cc(OC)c2c(=O)c(OC)c(-c3ccc(OC)c(OC)c3)oc2c1`, the logP was found to be 3.85. Molecule `O=C(O)[C@H]1O[C@@H](Oc2c(-c3ccc(O)c(O)c3)oc3cc(O)cc(O)c3c2=O)[C@H](O)[C@@H](O)[C@@H]1O` gave a logP of 0.79.

In the case of `O=C(OC[C@H]1O[C@@H](Oc2c(-c3ccc(O)c(O)c3)oc3cc(O)cc(O)c3c2=O)[C@H](O)[C@@H](O)[C@H]1O)c1cc(O)c(O)c(O)c1`, the logP was -0.97.

The nature of the next series: method code SF-HPLC, from Thijssen, W. (1981). The relationship between Log P, Rm, log k' and the constants pi and f: a study on penicillins. Eur J Med Chem, 16(5)449-452.
Conditions: not given
On to `Cc1onc(-c2c(Cl)ccc(O)c2F)c1C(=O)NC1SC2N(C1=O)C(C(=O)O)C2(C)C` (stereo unspecified), for which the logP came out at 2.23. Still for that read-out and setting: next, `Cc1onc(-c2c(Cl)cccc2Cl)c1C(=O)NC1C(=O)N2C1S(=O)C(C)(C)C2C(=O)O` (stereo unspecified): 2.57. In turn, `Cc1onc(-c2ccccc2Cl)c1C(=O)NC1C(=O)N2C1S(=O)C(C)(C)C2C(=O)O` (stereo unspecified) showed a logP of 2.

The next series is described as follows: from Jayashree, Bs.; Sahu, A.; MM, S.; Venugopala, K. (2006). Synthesis, characterization and determination of partition coefficient of some triazolo thiadiazinyl chlorocoumarin derivatives for their …. The note with it: pH 7.4.
Molecule `O=c1oc2ccc(Cl)cc2cc1C1=Nn2c(nnc2-c2ccccc2O)SC1` gave a logD of 0.36.

As for `O=c1oc2ccc(Cl)cc2cc1C1=Nn2c(nnc2-c2cccc(Br)c2)SC1`, the logD was found to be 1.53. The same measure, in the same setting: then `O=c1oc2ccc(Cl)cc2cc1C1=Nn2c(COc3ccc(Cl)cc3Cl)nnc2SC1`, with 1.4.
